From ChEMBL document CHEMBL6083230, “Synthesis and biological evaluation of ferrostatin-based diamide derivatives as new ferroptosis inhibitors” (Bioorg Med Chem Lett, 2024) come the findings set out here.

≈ marks a conversion by molar mass, not a printed value. Calls of active or inactive are those of the source.

One may read the half-life as the time needed for the level to fall by half in the phase considered. As usually defined, the EC50 is the midpoint of the concentration-response curve.

The nature of series [1]: Stability in mouse plasma assessed as parent compound remaining measured after 6 hrs. Format: ADME, cell-free. The settings on record: read-out: Stability.
A short description of series [2]: Metabolic stability in human liver microsomes assessed as half-life. Format: ADME, Microsome. For orientation: Microsomes from liver hold many membrane-bound enzymes, among them those of drug oxidation.
A short description of series [3]: Metabolic stability in mouse liver microsomes assessed as half-life. The series is classed as ADME, Microsome.
Series [4] has as its system HUVEC. As to the kind of experiment: Anti-ferroptosis activity against […]-induced ferroptosis in HUVEC cells assessed as increase in cell viability incubated for 24 hrs by SRB assay. The settings on record: Homo sapiens. The series is classed as functional, cell-based.
Series [5] relates to HUVEC. The experiment in a line: Anti-ferroptosis activity against […]-induced ferroptosis in HUVEC cells assessed as increase in cell viability at 10 uM incubated for 24 hrs by SRB assay. Format: functional, cell-based. The settings on record: Homo sapiens. For orientation: Sulforhodamine B stains cellular protein and so reports cell mass.
Series [6] in a line: Kinetic solubility of compound. The series is classed as physicochemical. The settings on record: read-out: Kinetic_solubility.
Series [7] relates to HUVEC. As to the kind of experiment: Anti-ferroptosis activity against erastin-induced ferroptosis in HUVEC cells assessed as upregulation of intracellular GPX4 level at 10 uM incubated for 24 hrs by Western blot analysis. The series is classed as functional, cell-based. The settings on record: Homo sapiens. (In general: Immunoblotting shows a protein as a band on a membrane.)

The test system of series [8] is HUVEC. The experiment in a line: Anti-ferroptosis activity against erastin-induced ferroptosis in HUVEC cells assessed as reduction in accumulation of lipid peroxidation at 10 uM incubated for 24 hrs by LPO assay. Format: functional, cell-based. Conditions: Homo sapiens.
For series [9], the system named is HUVEC. The experiment in a line: Anti-ferroptosis activity against erastin-induced ferroptosis in HUVEC cells assessed as reduction in malondialdehyde content at 10 uM incubated for 24 hrs by lipid peroxidation MDA assay. The series is classed as functional, cell-based. Conditions: Homo sapiens.
For series [10], the system named is HUVEC. As to the kind of experiment: Anti-ferroptosis activity against erastin-induced ferroptosis in HUVEC cells assessed as upregulation of intracellular GSH level at 10 uM incubated for 24 hrs. The settings on record: Homo sapiens. The series is classed as functional, cell-based.
Series [11] concerns HUVEC. As to the kind of experiment: Anti-ferroptosis activity against erastin-induced ferroptosis in HUVEC cells assessed as decrease in free ferrous ion level at 10 uM incubated for 24 hrs by Ferro orange fluorescent probe based assay. Conditions: Homo sapiens. Format: functional, cell-based.
The subject of series [12] is HUVEC. The experiment in a line: Anti-ferroptosis activity against erastin-induced ferroptosis in HUVEC cells assessed as decrease in intracellular lipid ROS level at 10 uM incubated for 24 hrs by BODIPY 581/591 dye based assay. Format: functional, cell-based. Conditions: Homo sapiens.

Regarding `CCNC(=O)c1ccc(NC2CCCCC2)c(NCc2ccccc2)c1`, the remaining at 6 h in series [1] was 0%. For the same compound, the half-life in series [2] is 38.9 min; in series [3], 19.6 min. For the same compound, in the series on HUVEC [4], the EC50 came out at 6200 nM. Besides, in the series with HUVEC [5], the Activity result is listed as “Active; Compound Exhibited Comparable Activity To Ferrostatin-1”. Further, the solubility kinetic in [6] was 50 µM (≈ 17.6 µg/mL).

Consider `CCNC(=O)c1ccc(NC2CCCCC2)c(NC(=O)Cc2ccc(C)cc2)c1`, for which the outcome with HUVEC [5] was inactive.

`CCNC(=O)c1ccc(NC2CCCCC2)c(NC(=O)Cc2ccc(OC)c(Br)c2)c1`: the result in the series on HUVEC [5] was inactive.

On to `CCNC(=O)c1ccc(NC2CCCCC2)c(NC(=O)Cc2cccc(OC)c2)c1`, for which the outcome in the series with HUVEC [5] was Active.

Turning to `CCNC(=O)c1ccc(NC2CCCCC2)c(NC(=O)Cc2ccc(F)cc2)c1`, in the series with HUVEC [5], the outcome was Active.

In the case of `CCNC(=O)c1ccc(NC2CCCCC2)c(NC(=O)Cc2ccc(OC)cc2)c1`, in the series with HUVEC [4], the EC50 is 980 nM. For the same compound, the Activity result in the series with HUVEC [5] is given as “Active; Compound Exhibited Comparable Activity To Ferrostatin-1”.

`CCNC(=O)c1ccc(NC2CCCCC2)c(NC(=O)Cc2ccc(F)c(Br)c2)c1`: the result in the series with HUVEC [5] was Active.

For `CCNC(=O)c1ccc(NC2CCCCC2)c(NC(=O)/C=C/c2cc(OC)c(OC)cc2OC)c1`, the remaining at 6 h in series [1] was 48%. Also, the half-life in series [2] worked out at 62.7 min; in series [3], 31.4 min. Further, the outcome with HUVEC [7], in the series with HUVEC [8], with HUVEC [9], in the series with HUVEC [10] and in the series on HUVEC [12] was Active. Moreover, in the series with HUVEC [4], the EC50 is 580 nM. Also, the results for the Activity result in the series on HUVEC [5] and in the series with HUVEC [11] were “Active; Compound Exhibited Comparable Activity To Ferrostatin-1; Most Significant Efficacy Observed” and “Active; Higher Effectiveness Compared To Ferrostatin-1”, respectively. The solubility kinetic in series [6] was 33.3 µM (≈ 16 µg/mL).

`CCNC(=O)c1ccc(NC2CCCCC2)c(NC(=O)Cc2cc(Br)cc(Br)c2)c1`: the outcome in the series on HUVEC [5] was Active.

For `CCNC(=O)c1ccc(NC2CCCCC2)c(NC(=O)Cc2cc(Br)ccc2Br)c1`, in the series with HUVEC [5], the outcome was inactive.

As for `CCOC(=O)c1ccc(NC2CCCCC2)c(N)c1`, in series [1], the remaining at 6 h came out at 18%. Further, the half-life in series [2] was found to be 16.8 min; in series [3], 2.7 min. For the same compound, the outcome in the series with HUVEC [7], in the series on HUVEC [8], with HUVEC [9], with HUVEC [10], with HUVEC [5] and in the series on HUVEC [11] was Active. Also, the outcome in the series with HUVEC [12] was Active. Besides, the solubility kinetic in series [6] was over 200 µM.

For `CCNC(=O)c1ccc(NC2CCCCC2)c(NC(=O)Cc2cc(OC)c(OC)c(OC)c2)c1`, the outcome with HUVEC [5] was inactive.

Turning to `CCNC(=O)c1ccc(NC2CCCCC2)c(NC(=O)/C=C/c2ccccc2OC)c1`, in the series with HUVEC [4], the EC50 is 1100 nM. The Activity result in the series on HUVEC [5] was “Active; Compound Exhibited Comparable Activity To Ferrostatin-1”.

Take `CCNC(=O)c1ccc(NC2CCCCC2)c(NC(=O)/C=C/c2cccc(Br)c2)c1`: the result with HUVEC [5] was Active.

For the compound `CCNC(=O)c1ccc(NC2CCCCC2)c(NC(=O)Cc2cc(F)c(F)cc2Br)c1`, the EC50 in the series on HUVEC [4] was 810 nM. In the series on HUVEC [5], the Activity entry is “Active; Compound Exhibited Comparable Activity To Ferrostatin-1”.

On to `CCNC(=O)c1ccc(NC2CCCCC2)c(NC(=O)Cc2ccc(OC)c(OC)c2)c1`, for which the outcome in the series on HUVEC [5] was Active.

Turning to `CCNC(=O)c1ccc(NC2CCCCC2)c(NC(=O)/C=C/c2ccc(O)c(OC)c2)c1`, the result with HUVEC [5] was Active.

Consider `CCNC(=O)c1ccc(NC2CCCCC2)c(NC(=O)Cc2cc(Br)ccc2F)c1`, for which the outcome with HUVEC [5] was Active.

Consider `CCNC(=O)c1ccc(NC2CCCCC2)c(NC(=O)Cc2cccc(Br)c2)c1`, for which, in the series on HUVEC [5], the result was inactive.

Consider `CCNC(=O)c1ccc(NC2CCCCC2)c(NC(=O)/C=C/c2ccccc2)c1`, for which, in the series on HUVEC [4], the EC50 amounted to 900 nM. In addition, the Activity entry in the series on HUVEC [5] is listed as “Active; Compound Exhibited Comparable Activity To Ferrostatin-1”.

As for `CCNC(=O)c1ccc(NC2CCCCC2)c(NC(=O)C(c2ccccc2)c2ccccc2)c1`, the EC50 in the series with HUVEC [4] came out at 1000 nM. The Activity entry in the series with HUVEC [5] is recorded as “Active; Compound Exhibited Comparable Activity To Ferrostatin-1”.

Consider `CCNC(=O)c1ccc(NC2CCCCC2)c(NC(=O)/C=C/c2cccc(OC)c2OC)c1`, for which the result in the series on HUVEC [5] was Active.

Consider `CCNC(=O)c1ccc(NC2CCCCC2)c(NC(=O)CCc2ccc(OC)cc2)c1`, for which the outcome in the series with HUVEC [5] was Active.
